Results taken from ChEMBL document CHEMBL2424575 (Eur J Med Chem, 2013).

What was measured:
Dipeptidyl peptidase 8 = Dipeptidyl peptidase 8 (Homo sapiens, UniProt Q6V1X1); experiment: Inhibition of DPP-8 (unknown origin)
Dipeptidyl peptidase 9 = Dipeptidyl peptidase 9 (Homo sapiens, UniProt Q86TI2)
Description: Inhibition of DPP-9 (unknown origin)

[1] = Oral bioavailability in Sprague-Dawley rat at 25 mg/kg; format: ADME, organism-based; conditions: in vivo
[2] = Half life in Sprague-Dawley rat at 25 mg/kg, po; format: ADME, organism-based; set-up: dose 25 mg/kg, route oral; conditions: in vivo
Cytochrome P450 3A4 = Cytochrome P450 3A4 (Homo sapiens, UniProt P08684); experiment: Inhibition of CYP3A (unknown origin); format: ADME
Mus musculus [3] = experiment: In vivo inhibition of DPP-4 in ICR mouse assessed as cleavage rate of Gly-Pro-AMC in plasma at 1 mg/kg, po measured at 24 hrs by fluorescence assay relative to control; format: functional
Mus musculus [4] = experiment: In vivo inhibition of DPP-4 in ICR mouse assessed as cleavage rate of Gly-Pro-AMC in plasma at 1 mg/kg, po measured at 7 hrs by fluorescence assay relative to control; format: functional
Mus musculus [5] = experiment: In vivo inhibition of DPP-4 in ICR mouse assessed as cleavage rate of Gly-Pro-AMC in plasma at 1 mg/kg, po measured at 4.5 hrs by fluorescence assay relative to control; format: functional
Mus musculus [6] = experiment: In vivo inhibition of DPP-4 in ICR mouse assessed as cleavage rate of Gly-Pro-AMC in plasma at 1 mg/kg, po measured at 0.5 hrs by fluorescence assay relative to control; format: functional
Mus musculus [7] = experiment: In vivo inhibition of DPP-4 in ICR mouse assessed as cleavage rate of Gly-Pro-AMC in plasma at 3 mg/kg, po measured at 24 hrs by fluorescence assay relative to control; format: functional
Mus musculus [8] = experiment: In vivo inhibition of DPP-4 in ICR mouse assessed as cleavage rate of Gly-Pro-AMC in plasma at 3 mg/kg, po measured at 7 hrs by fluorescence assay relative to control; format: functional
Mus musculus [9] = experiment: In vivo inhibition of DPP-4 in ICR mouse assessed as cleavage rate of Gly-Pro-AMC in plasma at 3 mg/kg, po measured at 4.5 hrs by fluorescence assay relative to control; format: functional
Mus musculus [10] = experiment: In vivo inhibition of DPP-4 in ICR mouse assessed as cleavage rate of Gly-Pro-AMC in plasma at 3 mg/kg, po measured at 0.5 hrs by fluorescence assay relative to control; format: functional
[11] = Apparent volume of distribution during terminal phase in Sprague-Dawley rat at 5 mg/kg, iv and 25 mg/kg, po; format: ADME, organism-based; conditions: in vivo, read-out: Vz/F
[12] = AUC (0 to t) in Sprague-Dawley rat at 25 mg/kg, po; format: ADME, organism-based; set-up: dose 25 mg/kg, route oral; conditions: plasma
[13] = Plasma clearance in Sprague-Dawley rat at 5 mg/kg, iv and 25 mg/kg, po; format: ADME, organism-based
[14] = Half life in Sprague-Dawley rat at 5 mg/kg, iv; format: ADME, organism-based; set-up: dose 5 mg/kg, route intravenous; conditions: in vivo
[15] = target: Voltage-gated inwardly rectifying potassium channel KCNH2 (Homo sapiens, UniProt Q12809); experiment: Inhibition of human ERG
Voltage-gated inwardly rectifying potassium channel KCNH2, sequence (Q12809 whole entry): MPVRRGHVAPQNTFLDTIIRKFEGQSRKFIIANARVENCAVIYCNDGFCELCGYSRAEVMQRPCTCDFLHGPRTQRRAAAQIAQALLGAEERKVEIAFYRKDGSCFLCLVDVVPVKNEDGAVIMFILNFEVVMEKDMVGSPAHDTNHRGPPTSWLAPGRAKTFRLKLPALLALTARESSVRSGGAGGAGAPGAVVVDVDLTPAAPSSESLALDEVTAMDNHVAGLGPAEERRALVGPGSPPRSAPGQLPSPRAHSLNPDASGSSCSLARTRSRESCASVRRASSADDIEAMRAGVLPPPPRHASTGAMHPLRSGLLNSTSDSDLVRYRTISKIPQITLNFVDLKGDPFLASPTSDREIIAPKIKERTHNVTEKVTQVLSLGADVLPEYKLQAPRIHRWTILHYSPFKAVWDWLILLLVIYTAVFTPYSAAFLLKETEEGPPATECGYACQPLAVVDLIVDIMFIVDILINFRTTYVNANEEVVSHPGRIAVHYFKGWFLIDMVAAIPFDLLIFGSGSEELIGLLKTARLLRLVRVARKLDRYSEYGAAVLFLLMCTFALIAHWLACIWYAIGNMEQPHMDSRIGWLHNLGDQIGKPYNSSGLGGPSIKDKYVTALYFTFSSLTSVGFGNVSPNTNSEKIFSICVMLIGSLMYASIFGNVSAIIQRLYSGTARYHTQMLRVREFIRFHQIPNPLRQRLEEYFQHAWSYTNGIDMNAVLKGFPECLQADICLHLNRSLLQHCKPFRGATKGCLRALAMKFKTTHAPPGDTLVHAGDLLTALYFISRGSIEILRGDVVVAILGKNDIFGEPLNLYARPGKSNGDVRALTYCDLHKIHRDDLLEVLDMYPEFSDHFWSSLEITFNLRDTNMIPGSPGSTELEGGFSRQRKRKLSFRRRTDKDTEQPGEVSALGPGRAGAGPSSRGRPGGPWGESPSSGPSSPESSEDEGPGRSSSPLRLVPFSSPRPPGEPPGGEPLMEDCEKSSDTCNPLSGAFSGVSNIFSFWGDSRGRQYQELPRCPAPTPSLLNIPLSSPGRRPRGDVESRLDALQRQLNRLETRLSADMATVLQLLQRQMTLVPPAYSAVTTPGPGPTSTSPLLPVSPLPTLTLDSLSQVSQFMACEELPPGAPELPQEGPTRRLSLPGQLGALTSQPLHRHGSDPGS

Dipeptidyl peptidase 9, sequence (Q86TI2 whole entry): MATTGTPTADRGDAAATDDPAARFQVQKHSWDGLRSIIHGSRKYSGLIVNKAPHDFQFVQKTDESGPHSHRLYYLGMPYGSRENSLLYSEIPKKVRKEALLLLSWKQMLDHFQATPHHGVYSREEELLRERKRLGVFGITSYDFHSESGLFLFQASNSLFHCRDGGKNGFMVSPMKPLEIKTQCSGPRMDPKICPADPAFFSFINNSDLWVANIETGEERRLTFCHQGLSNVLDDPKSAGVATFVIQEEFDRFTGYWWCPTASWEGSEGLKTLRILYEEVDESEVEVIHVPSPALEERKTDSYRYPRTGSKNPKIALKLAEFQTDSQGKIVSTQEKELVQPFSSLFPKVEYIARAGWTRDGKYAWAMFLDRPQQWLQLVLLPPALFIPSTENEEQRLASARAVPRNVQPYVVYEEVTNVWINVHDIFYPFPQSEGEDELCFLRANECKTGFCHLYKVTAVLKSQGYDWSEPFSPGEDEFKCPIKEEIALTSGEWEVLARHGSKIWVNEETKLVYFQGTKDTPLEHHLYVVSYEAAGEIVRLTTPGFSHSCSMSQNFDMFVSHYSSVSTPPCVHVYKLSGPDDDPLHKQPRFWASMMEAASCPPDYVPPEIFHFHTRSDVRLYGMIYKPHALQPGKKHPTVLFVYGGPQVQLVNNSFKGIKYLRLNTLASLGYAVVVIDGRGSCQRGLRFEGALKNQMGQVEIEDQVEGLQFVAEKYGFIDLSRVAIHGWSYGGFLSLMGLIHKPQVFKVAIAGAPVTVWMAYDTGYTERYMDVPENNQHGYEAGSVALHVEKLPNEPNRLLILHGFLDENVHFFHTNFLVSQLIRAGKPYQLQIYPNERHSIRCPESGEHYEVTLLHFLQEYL
Cytochrome P450 3A4, sequence (P08684 whole entry): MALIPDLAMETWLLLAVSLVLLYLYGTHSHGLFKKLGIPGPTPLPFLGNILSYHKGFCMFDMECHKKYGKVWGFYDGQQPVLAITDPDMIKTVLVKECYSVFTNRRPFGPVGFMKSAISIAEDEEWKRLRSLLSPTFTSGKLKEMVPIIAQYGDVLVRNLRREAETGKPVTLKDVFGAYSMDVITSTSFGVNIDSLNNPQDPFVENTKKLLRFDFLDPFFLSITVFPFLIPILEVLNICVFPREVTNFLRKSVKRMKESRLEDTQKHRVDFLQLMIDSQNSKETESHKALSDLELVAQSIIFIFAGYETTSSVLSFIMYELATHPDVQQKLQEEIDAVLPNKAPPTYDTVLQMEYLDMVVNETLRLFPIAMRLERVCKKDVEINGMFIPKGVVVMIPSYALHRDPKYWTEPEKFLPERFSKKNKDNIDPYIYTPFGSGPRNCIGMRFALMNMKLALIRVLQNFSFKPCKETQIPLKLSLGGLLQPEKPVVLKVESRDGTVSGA
Dipeptidyl peptidase 8, sequence (Q6V1X1 whole entry): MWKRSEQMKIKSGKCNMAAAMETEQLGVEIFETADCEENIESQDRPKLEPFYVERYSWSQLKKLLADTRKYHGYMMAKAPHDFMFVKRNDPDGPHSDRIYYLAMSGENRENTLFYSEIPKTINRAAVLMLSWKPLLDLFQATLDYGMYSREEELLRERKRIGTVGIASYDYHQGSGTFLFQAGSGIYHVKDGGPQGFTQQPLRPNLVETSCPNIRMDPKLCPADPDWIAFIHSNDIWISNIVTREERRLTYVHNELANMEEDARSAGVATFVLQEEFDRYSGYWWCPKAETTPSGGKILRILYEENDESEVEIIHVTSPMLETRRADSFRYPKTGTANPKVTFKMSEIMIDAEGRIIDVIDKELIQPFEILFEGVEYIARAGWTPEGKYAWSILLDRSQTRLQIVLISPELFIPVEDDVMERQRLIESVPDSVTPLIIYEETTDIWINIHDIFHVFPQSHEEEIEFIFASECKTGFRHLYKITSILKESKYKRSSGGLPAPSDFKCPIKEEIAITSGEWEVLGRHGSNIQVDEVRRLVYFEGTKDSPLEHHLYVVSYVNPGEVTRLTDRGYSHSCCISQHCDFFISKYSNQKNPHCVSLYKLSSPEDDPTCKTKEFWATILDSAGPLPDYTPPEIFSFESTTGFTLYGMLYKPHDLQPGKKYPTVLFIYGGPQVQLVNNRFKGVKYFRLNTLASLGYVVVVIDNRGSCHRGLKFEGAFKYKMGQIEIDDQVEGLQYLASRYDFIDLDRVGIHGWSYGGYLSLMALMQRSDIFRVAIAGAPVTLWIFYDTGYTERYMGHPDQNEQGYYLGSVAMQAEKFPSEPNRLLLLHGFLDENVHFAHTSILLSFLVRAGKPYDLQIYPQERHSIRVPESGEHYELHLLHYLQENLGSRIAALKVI

Row | Structure (SMILES) | IC50 (Dipeptidyl peptidase 8) [µM] | IC50 (Dipeptidyl peptidase 9) [µM] | IC50 (Cytochrome P450 3A4) [µM] | other results
1 | CC#CCn1c(N2CCC[C@@H](N)C2)cc(=O)n(Cc2ccccc2)c1=O | > 100 | > 100 | – | –
2 | CC#CCn1c(N2CCC[C@@H](N)C2)cc(=O)n(Cc2ccc3ccccc3n2)c1=O | > 100 | > 100 | 97.9 | bioavailability [1]: 63%; half-life [2]: 4.2 h
3 | CC#CCn1c(N2CCC[C@@H](N)C2)cc(=O)n(Cc2ccc3c(ccc4ccccc43)n2)c1=O | > 100 | > 100 | – | –
4 | CC#CCn1c(N2CCC[C@@H](N)C2)cc(=O)n(Cc2ccc3cc(Cl)ccc3n2)c1=O | > 100 | > 100 | 91.9 | –
5 | CC#CCn1c(N2CCC[C@@H](N)C2)cc(=O)n(Cc2ccc3cc(F)ccc3n2)c1=O | > 100 | > 100 | 58.3 | –
6 | CC#CCn1c(N2CCC[C@@H](N)C2)cc(=O)n(Cc2ccc3cc(C)ccc3n2)c1=O | > 100 | > 100 | 46.2 | –
7 | CC#CCn1c(N2CCC[C@@H](N)C2)cc(=O)n(Cc2ccc3ccc(Cl)cc3n2)c1=O | > 100 | > 100 | 46.2 | inhibition in vivo at 1 mg/kg (Mus musculus [3]): 11.5%; inhibition in vivo at 1 mg/kg (Mus musculus [4]): 71.6%; inhibition in vivo at 1 mg/kg (Mus musculus [5]): 76%; inhibition in vivo at 1 mg/kg (Mus musculus [6]): 51.8%; inhibition in vivo at 3 mg/kg (Mus musculus [7]): 13.5%; inhibition in vivo at 3 mg/kg (Mus musculus [8]): 82.3%; inhibition in vivo at 3 mg/kg (Mus musculus [9]): 84.7%; inhibition in vivo at 3 mg/kg (Mus musculus [10]): 80.4%; bioavailability [1]: 73%; Vd/F [11]: 8.65 L/kg; AUC(0-t) [12]: 17600 ng·h/mL; clearance [13]: 17.5 mL/min/kg; half-life [14]: 5.65 h; half-life [2]: 5.02 h; IC50 [15]: > 100 µM
8 | Cn1c(=O)cc(N2CCC[C@@H](N)C2)n(Cc2ccccc2C#N)c1=O [ALOGLIPTIN] | – | – | – | inhibition in vivo at 1 mg/kg (Mus musculus [3]): 0.5%; inhibition in vivo at 1 mg/kg (Mus musculus [4]): 27.6%; inhibition in vivo at 1 mg/kg (Mus musculus [5]): 49.4%; inhibition in vivo at 1 mg/kg (Mus musculus [6]): 72.6%; inhibition in vivo at 3 mg/kg (Mus musculus [7]): 0.8%; inhibition in vivo at 3 mg/kg (Mus musculus [8]): 50.9%; inhibition in vivo at 3 mg/kg (Mus musculus [9]): 71.5%; inhibition in vivo at 3 mg/kg (Mus musculus [10]): 83.8%; half-life [2]: 2 h

The next lines start with results.

Row | IC50 (Dipeptidyl peptidase 8) [µM] | IC50 (Dipeptidyl peptidase 9) [µM] | IC50 (Cytochrome P450 3A4) [µM] | Structure (SMILES) | other results
9 | > 100 | > 100 | – | CC#CCn1c(N2CCC[C@@H](N)C2)cc(=O)n(CC#CC)c1=O | –
10 | > 100 | > 100 | – | CC#CCn1c(N2CCC[C@@H](N)C2)cc(=O)n(Cc2ncccn2)c1=O | –
11 | > 100 | > 100 | – | CC#CCn1c(N2CCC[C@@H](N)C2)cc(=O)n(Cc2nc3ccccc3[nH]2)c1=O | –
12 | > 100 | > 100 | 79.4 | CC#CCn1c(N2CCC[C@@H](N)C2)cc(=O)n(Cc2ccc3cc(Br)ccc3n2)c1=O | –
13 | > 100 | > 100 | 42.2 | CC#CCn1c(N2CCC[C@@H](N)C2)cc(=O)n(Cc2ccc3cc(OC)ccc3n2)c1=O | –
14 | > 100 | > 100 | 54.7 | CC#CCn1c(N2CCC[C@@H](N)C2)cc(=O)n(Cc2ccc3ccc(F)cc3n2)c1=O | –
15 | > 100 | – | 14.1 | CC#CCn1c(N2CCC[C@@H](N)C2)cc(=O)n(Cc2cc(Cl)c3ccccc3n2)c1=O | –
